Publication PMC3798605, “Independent Pathways Can Transduce the Life-Cycle Differentiation Signal in Trypanosoma brucei” (PLoS Pathogens, 2013)

Biological target: T1, TbPTP1/TbPIP39 (Trypanosoma brucei, UniProt Q38AT7+Q38EW0)
T1 construct: gene Tb10.70.0070; His-TbPTP1 plus GST-TbPIP39 (recoded synthetic gene, pGEX4T1); biophysical preparations described in supplement
T1 sequence (Q38AT7 1-306): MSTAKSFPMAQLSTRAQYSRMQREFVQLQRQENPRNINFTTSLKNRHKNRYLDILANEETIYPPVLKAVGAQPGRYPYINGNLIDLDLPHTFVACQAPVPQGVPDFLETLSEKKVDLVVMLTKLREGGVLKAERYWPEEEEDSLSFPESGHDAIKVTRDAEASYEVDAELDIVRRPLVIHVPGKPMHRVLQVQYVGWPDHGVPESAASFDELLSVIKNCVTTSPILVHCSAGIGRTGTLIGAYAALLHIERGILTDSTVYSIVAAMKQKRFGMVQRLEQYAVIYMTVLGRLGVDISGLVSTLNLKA
T1 sequence (Q38EW0 1-343): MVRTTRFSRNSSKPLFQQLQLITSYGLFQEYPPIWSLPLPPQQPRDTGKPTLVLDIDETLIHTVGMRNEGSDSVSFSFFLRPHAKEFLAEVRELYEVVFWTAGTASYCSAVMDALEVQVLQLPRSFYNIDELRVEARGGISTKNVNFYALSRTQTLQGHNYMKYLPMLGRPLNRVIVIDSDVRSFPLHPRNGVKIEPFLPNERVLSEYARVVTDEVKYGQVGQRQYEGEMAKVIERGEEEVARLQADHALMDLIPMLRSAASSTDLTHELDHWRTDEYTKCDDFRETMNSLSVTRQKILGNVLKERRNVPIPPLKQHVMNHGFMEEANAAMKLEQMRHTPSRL
Experiment: SPR, ligand-dependent TbPTP1-TbPIP39 interaction
Format: binding
Conditions: isocitrate-promoted complex formation, indirect evidence; TbPTP1 immobilised

## O=C(O)C[C@H](C(=O)O)[C@@H](O)C(=O)O [isocitrate]
  SPR, ligand-dependent TbPTP1-TbPIP39 interaction: isocitrate, which does not stimulate differentiation, also promoted the interaction between TbPTP1 and wild type
